Laboratory results taken from ChEMBL document CHEMBL1201862, “PubChem BioAssay data set” (2004).
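Protocol summary: plate cells (96-well), add compound at 5 concentrations, incubate 48 h, interpolate endpoints linearly. Here, GI50 denotes the concentration required for 50% inhibition of growth.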 Active and inactive are the calls of the source. Cut-off read from the data, not from the text of the source: active = GI50 up to about 1.1 µM and inactive = higher.

How the values were obtained:
Test in all cases: growth of human tumour cells (NCI), 48 h
OVCAR-5 = test system: OVCAR-5
MOLT-4 = test system: MOLT-4
MDA-N = test system: MDA-N
UACC-257 = test system: UACC-257
RXF 393 = test system: RXF 393
PC-3 = test system: PC-3
Hs-578T = test system: Hs-578T
EKVX = test system: EKVX
NCI/ADR-RES = test system: NCI/ADR-RES
HT-29 = test system: HT-29
OVCAR-3 = test system: OVCAR-3
MDA-MB-231 = test system: MDA-MB-231
MDA-MB-435 = test system: MDA-MB-435
HCC 2998 = test system: HCC 2998
NCI-H226 = test system: NCI-H226
A549 = test system: A549
SK-MEL-2 = test system: SK-MEL-2
K562 = test system: K562
CCRF-CEM = test system: CCRF-CEM
NCI-H23 = test system: NCI-H23

| Compound | GI50 (OVCAR-5) | GI50 (MOLT-4) | GI50 (MDA-N) | GI50 (UACC-257) | GI50 (RXF 393) | GI50 (PC-3) | GI50 (Hs-578T) | GI50 (EKVX) | GI50 (NCI/ADR-RES) | GI50 (HT-29) | GI50 (OVCAR-3) | GI50 (MDA-MB-231) | GI50 (MDA-MB-435) | GI50 (HCC 2998) | GI50 (NCI-H226) | GI50 (A549) | GI50 (SK-MEL-2) | GI50 (K562) | GI50 (CCRF-CEM) | GI50 (NCI-H23) |
| --- | --- | --- | --- | --- | --- | --- | --- | --- | --- | --- | --- | --- | --- | --- | --- | --- | --- | --- | --- | --- |
| Cc1cc(S(=O)(=O)Nc2n[nH]c(-c3ccc(Cl)cn3)n2)c(S)cc1Cl | > 100 µM (inactive) | 40.6 µM (inactive) | 63.4 µM (inactive) | > 100 µM (inactive) | 27.1 µM (inactive) | > 100 µM (inactive) | 27.9 µM (inactive) | > 100 µM (inactive) | 85.5 µM (inactive) | 39.3 µM (inactive) | 45.6 µM (inactive) | > 100 µM (inactive) | 43.1 µM (inactive) | 57.5 µM (inactive) | 33.4 µM (inactive) | 62.7 µM (inactive) | 47.5 µM (inactive) |  |  |  |
| CSC1=NC(C(N)=O)C(N)N1C (stereo unspecified) | > 100 µM (inactive) | > 100 µM (inactive) | > 100 µM (inactive) | > 100 µM (inactive) | > 100 µM (inactive) | > 100 µM (inactive) | > 100 µM (inactive) | > 100 µM (inactive) | > 100 µM (inactive) | > 100 µM (inactive) | > 100 µM (inactive) | 38.6 µM (inactive) | > 100 µM (inactive) |  | > 100 µM (inactive) | > 100 µM (inactive) | > 100 µM (inactive) | > 100 µM (inactive) | > 100 µM (inactive) | > 100 µM (inactive) |
| c1cc(-c2cscc2-c2ccsc2)cs1 | 53.2 µM (inactive) | 30.1 µM (inactive) | 40.2 µM (inactive) | 58.2 µM (inactive) | 28.4 µM (inactive) | 27.5 µM (inactive) | 17.4 µM (inactive) | 41.3 µM (inactive) | 37.7 µM (inactive) | > 100 µM (inactive) | 14.4 µM (inactive) | > 100 µM (inactive) | 36.4 µM (inactive) | 27.4 µM (inactive) |  | 43.6 µM (inactive) | 4.65 µM (inactive) | 71.4 µM (inactive) | 52.6 µM (inactive) | 25.7 µM (inactive) |
| O=C(/C=C/c1c[nH]c2ccccc12)c1ccccc1O | 13.6 µM (inactive) | 7.41 µM (inactive) | 5.5 µM (inactive) | 15.5 µM (inactive) |  | 4.03 µM (inactive) | 22.6 µM (inactive) | 5.97 µM (inactive) |  | 15.1 µM (inactive) | 5.05 µM (inactive) | 3.18 µM (inactive) | 4.88 µM (inactive) | 11 µM (inactive) | 16.7 µM (inactive) | 10.5 µM (inactive) | 3.55 µM (inactive) | 5.32 µM (inactive) |  |  |
| COc1cc(-c2[nH]ccc2Cl)oc1C1=C2N=C3C=C2C(C(C)C)C1CCCCCCCC3 (stereo unspecified) | 0.735 µM (active) | 0.433 µM (active) | 0.466 µM (active) | 1.29 µM (inactive) | 0.904 µM (active) | 0.332 µM (active) | 0.253 µM (active) | 0.944 µM (active) |  | 0.252 µM (active) | 0.61 µM (active) | 0.279 µM (active) | 0.401 µM (active) | 0.341 µM (active) | 1.06 µM (active) | 0.912 µM (active) | 0.483 µM (active) | 0.403 µM (active) | 0.275 µM (active) | 0.738 µM (active) |
| CC(C)SC(C)(NC(=O)C1C(C)(C)CCC1(C)C)C(=O)O (stereo unspecified) | > 100 µM (inactive) | > 100 µM (inactive) | > 100 µM (inactive) |  |  | > 100 µM (inactive) | > 100 µM (inactive) | > 100 µM (inactive) | > 100 µM (inactive) |  |  | > 100 µM (inactive) | > 100 µM (inactive) | > 100 µM (inactive) | > 100 µM (inactive) | > 100 µM (inactive) | > 100 µM (inactive) | > 100 µM (inactive) | > 100 µM (inactive) | > 100 µM (inactive) |
